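Grown in 96-well plates, cells were treated for 48 hours with each compound at five concentrations. Insufficient inhibition: endpoint recorded as highest concentration tested. GI50 marks 50% less growth.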 Active and inactive are the calls of the source. Rule as the data show it: active = GI50 up to about 1.1 µM and inactive = higher.

Some test systems named below: Hs-578T; UACC-62; NCI-H23; COLO 205; MOLT-4; UACC-257; PC-3; HCC 2998; OVCAR-4; SNB-75; MDA-N; SF-295; OVCAR-5; HOP-92; NCI/ADR-RES; MDA-MB-231; K562; HCT-15; HT-29; DU-145.
Common to all, as to assay: NCI-60 cell line screen, 48 h

`COc1cc(OC)c(-c2oc3ccccc3c(=O)c2O)c(OC)c1`: the GI50 in the assay on Hs-578T is 2.39 µM (inactive); in the assay on UACC-62, 2.69 µM (inactive); with NCI-H23, 17.3 µM (inactive); with COLO 205, 3.08 µM (inactive); in the assay on MOLT-4, 3.52 µM (inactive); with UACC-257, > 91.6 µM (inactive). Moreover, the GI50 in the assay with PC-3 is 5.69 µM (inactive); in the assay on HCC 2998 it was 0.586 µM (active); in the assay with OVCAR-4, 0.237 µM (active); with SNB-75 it was 6.01 µM (inactive); in the assay with MDA-N, 0.867 µM (active); in the assay with SF-295 it was 2.44 µM (inactive). Also, the GI50 with OVCAR-5 is > 100 µM (inactive); in the assay on HOP-92 it was 8.17 µM (inactive); with NCI/ADR-RES, 1.77 µM (inactive); with MDA-MB-231 it was > 20.7 µM (inactive); in the assay on K562, 2.7 µM (inactive); in the assay with HCT-15 it was 2.99 µM. Also, the GI50 with HT-29 was 3.08 µM (inactive).
With `Cc1cc(N(C)c2ccccc2)nc(N(C)c2ccccc2)n1`, the GI50 in the assay with Hs-578T is 26.8 µM (inactive); with UACC-62, 28.6 µM (inactive); in the assay with NCI-H23, 36.7 µM (inactive); in the assay with COLO 205 it was 23.9 µM (inactive); in the assay on MOLT-4, 33.7 µM (inactive); with UACC-257, 25.4 µM (inactive). Further, the GI50 in the assay on PC-3 was 43.3 µM (inactive); in the assay with HCC 2998 it was 36.9 µM (inactive); with OVCAR-4, > 100 µM (inactive); in the assay with SNB-75 it was 41.1 µM (inactive); in the assay with MDA-N, 52.4 µM (inactive); in the assay on SF-295, 20.2 µM (inactive). The GI50 is 21.2 µM (inactive) with OVCAR-5; 92.3 µM (inactive) in the assay on DU-145; 58.3 µM (inactive) with NCI/ADR-RES; 33.2 µM (inactive) with MDA-MB-231; 49.9 µM (inactive) with K562; 32.1 µM with HCT-15. In addition, the GI50 with HT-29 is 17.9 µM (inactive).
Turning to `C#CCN(C(=O)C(F)(F)F)C(/C=C\C(=O)OC)(C(=O)OCC)C(=O)OCC`, the GI50 in the assay with Hs-578T was > 100 µM (inactive); with UACC-62 it was > 100 µM (inactive); with NCI-H23, > 100 µM (inactive); in the assay with COLO 205 it was > 10 µM (inactive); in the assay with MOLT-4, > 100 µM (inactive); in the assay with PC-3 it was > 100 µM (inactive). Besides, the GI50 in the assay on HCC 2998, in the assay with OVCAR-4, in the assay with SNB-75, in the assay with MDA-N, in the assay on SF-295 and in the assay on OVCAR-5 was > 100 µM (inactive) each time. In addition, the GI50 is > 100 µM (inactive) with DU-145; > 100 µM (inactive) with NCI/ADR-RES; > 100 µM (inactive) in the assay on MDA-MB-231; > 100 µM (inactive) in the assay on K562; > 100 µM in the assay on HCT-15; > 100 µM (inactive) in the assay on HT-29.
As for `C/C=C1\CC(C(=O)OCC)CCCCCCCCCCC1=O` (configuration not stated), the GI50 in the assay on Hs-578T is 28.9 µM (inactive); with UACC-62 it was 91.2 µM (inactive); with NCI-H23, 37.6 µM (inactive); with COLO 205, > 100 µM (inactive); in the assay on MOLT-4 it was 29 µM (inactive); in the assay with UACC-257, 37.8 µM (inactive). The GI50 with PC-3 was 47.9 µM (inactive); with OVCAR-4, 55.5 µM (inactive); with SNB-75, 27.7 µM (inactive); with MDA-N, 29.4 µM (inactive); with SF-295, 57.4 µM (inactive); in the assay with OVCAR-5 it was > 100 µM (inactive). Moreover, the GI50 in the assay on DU-145 is 54.3 µM (inactive); in the assay on NCI/ADR-RES, 34.7 µM (inactive); in the assay on MDA-MB-231 it was 58.6 µM (inactive); in the assay on HCT-15 it was 34.6 µM; in the assay with HT-29, 46.8 µM (inactive).
As for `COc1ccc2oc(OC)c(CC=C(C)C)c(=O)c2c1C`, the GI50 in the assay with Hs-578T, with UACC-62, in the assay with NCI-H23, in the assay with COLO 205, in the assay with MOLT-4 and with UACC-257 was > 100 µM (inactive) in each case. Further, the GI50 with PC-3, with HCC 2998, in the assay on SNB-75, in the assay on MDA-N, in the assay with SF-295 and with OVCAR-5 was > 100 µM (inactive) throughout. The GI50 in the assay on DU-145 is > 100 µM (inactive); in the assay on NCI/ADR-RES, > 100 µM (inactive); with MDA-MB-231 it was > 100 µM (inactive); with K562 it was > 100 µM (inactive); in the assay with HCT-15, > 100 µM; with HT-29 it was > 100 µM (inactive).
As for `O=[N+]([O-])C(/C(Cl)=C(/Cl)N1CCCCC1)=C1\NCCO1`, the GI50 in the assay on Hs-578T, in the assay on UACC-62, in the assay on NCI-H23, with COLO 205, with MOLT-4 and in the assay with UACC-257 was > 100 µM (inactive) throughout. Moreover, the GI50 with PC-3, in the assay with HCC 2998, in the assay with OVCAR-4, in the assay with SNB-75, with MDA-N and in the assay on SF-295 was > 100 µM (inactive) throughout. Further, the GI50 in the assay on OVCAR-5 is > 100 µM (inactive); in the assay with DU-145, > 100 µM (inactive); with NCI/ADR-RES it was > 100 µM (inactive); in the assay with MDA-MB-231 it was > 100 µM (inactive); in the assay with HCT-15, > 100 µM; in the assay with HT-29, > 100 µM (inactive).
On to `CCCNC(=O)Cn1c(-c2ccccc2)cc2ccccc21`, for which the GI50 is 31.8 µM (inactive) with Hs-578T; 26.4 µM (inactive) in the assay with UACC-62; 48 µM (inactive) in the assay with NCI-H23; > 100 µM (inactive) with COLO 205; 85.1 µM (inactive) in the assay on MOLT-4; > 100 µM (inactive) in the assay with UACC-257. The GI50 with PC-3 is 41.1 µM (inactive); in the assay with HCC 2998 it was > 100 µM (inactive); with OVCAR-4, 24.4 µM (inactive); with SNB-75 it was 25.9 µM (inactive); in the assay with MDA-N it was 83.4 µM (inactive); with SF-295 it was 88.7 µM (inactive). The GI50 with OVCAR-5 is > 100 µM (inactive); in the assay on DU-145, > 100 µM (inactive); in the assay with NCI/ADR-RES it was 42.4 µM (inactive); in the assay with MDA-MB-231, 32.7 µM (inactive); with K562, > 100 µM (inactive); with HCT-15, 75 µM. Moreover, the GI50 in the assay on HT-29 was 93.8 µM (inactive).
Consider `CN(C)CCC(=O)N1C/C(=C/c2ccccc2)C(=O)/C(=C\c2ccccc2)C1`, for which the GI50 in the assay on Hs-578T was 3.55 µM (inactive); with UACC-62, 1.53 µM (inactive); with NCI-H23, 2.29 µM (inactive); with COLO 205, 2.24 µM (inactive); in the assay on MOLT-4, 0.313 µM (active); with UACC-257 it was 2.08 µM (inactive). Moreover, the GI50 in the assay on PC-3 was 1.54 µM (inactive); in the assay on HCC 2998, 1.06 µM (active); in the assay on OVCAR-4, 2.17 µM (inactive); in the assay with SNB-75, 4.74 µM (inactive); with MDA-N, 1.14 µM (inactive); with SF-295, 2.93 µM (inactive). In addition, the GI50 with OVCAR-5 was 2.6 µM (inactive); in the assay with HOP-92, 7.11 µM (inactive); in the assay with DU-145, 6.79 µM (inactive); in the assay on MDA-MB-231, 0.735 µM (active); in the assay on K562, 0.182 µM (active); with HCT-15, 1.05 µM. In addition, the GI50 in the assay on HT-29 is 0.679 µM (active).
Regarding `Cc1cc(N(CCC#N)CCC#N)ccc1C(/N=N/c1ccccc1)=N\NC(=O)c1ccccc1`, the GI50 is 31.5 µM (inactive) in the assay on Hs-578T; 2.77 µM (inactive) in the assay with UACC-62; 30.5 µM (inactive) in the assay on NCI-H23; 20.4 µM (inactive) with COLO 205; 19.5 µM (inactive) with MOLT-4; 38.5 µM (inactive) with UACC-257. Also, the GI50 in the assay on PC-3 was 16.9 µM (inactive); in the assay with HCC 2998, 22.9 µM (inactive); with OVCAR-4 it was 29.2 µM (inactive); in the assay on SNB-75, 48.6 µM (inactive); in the assay with MDA-N it was 7.96 µM (inactive); with SF-295, 11.6 µM (inactive). The GI50 is 86.9 µM (inactive) in the assay with OVCAR-5; 21.7 µM (inactive) in the assay on DU-145; 20.2 µM (inactive) in the assay on NCI/ADR-RES; 57 µM (inactive) in the assay on MDA-MB-231; 9.84 µM (inactive) with K562; 18.3 µM with HCT-15. Besides, in the assay on HT-29, the GI50 is 16.8 µM (inactive).
As to `COc1ccc(N[S+]([O-])c2cccc(C)c2)cc1` (configuration not stated), the GI50 was 87.9 µM (inactive) in the assay on Hs-578T; > 100 µM (inactive) in the assay on NCI-H23; 59.6 µM (inactive) with COLO 205; 35.3 µM (inactive) in the assay on MOLT-4; > 100 µM (inactive) in the assay with UACC-257; > 100 µM (inactive) in the assay with PC-3. Besides, the GI50 was 3.88 µM (inactive) in the assay on HCC 2998; > 100 µM (inactive) in the assay with SNB-75; > 100 µM (inactive) in the assay with MDA-N; > 100 µM (inactive) in the assay with SF-295; > 100 µM (inactive) with OVCAR-5; > 100 µM (inactive) with DU-145. Besides, the GI50 with NCI/ADR-RES was 14 µM (inactive); in the assay on MDA-MB-231, 48.5 µM (inactive); in the assay on K562, 9.73 µM (inactive); with HCT-15, 5.21 µM; in the assay with HT-29, 92.9 µM (inactive).
For the compound `CCC1(CC)C(=O)N(C(=O)c2ccccc2)N(C(=O)c2ccc(Cl)cc2)C1=O`, the GI50 in the assay with Hs-578T was > 75 µM (inactive); with UACC-62, > 75 µM (inactive); in the assay on NCI-H23, > 75 µM (inactive); with COLO 205, > 75 µM (inactive); in the assay on MOLT-4, 17 µM (inactive); in the assay with UACC-257, > 75 µM (inactive). Besides, the GI50 in the assay with PC-3, in the assay on HCC 2998, in the assay with OVCAR-4, with SNB-75, in the assay with MDA-N and in the assay on SF-295 was > 75 µM (inactive) in each case. Further, the GI50 in the assay with OVCAR-5 was > 75 µM (inactive); with DU-145, > 75 µM (inactive); in the assay on NCI/ADR-RES it was > 75 µM (inactive); with MDA-MB-231, > 75 µM (inactive); in the assay on K562 it was 32.9 µM (inactive); in the assay with HCT-15, 72.3 µM. In the assay with HT-29, the GI50 is 58.6 µM (inactive).

For the origin of these results see ChEMBL document CHEMBL1201862, “PubChem BioAssay data set” (2004).
